According to ChEMBL document CHEMBL5126582, “Discovery of (2-(pyrrolidin-1-yl)thieno[3,2-d]pyrimidin-4-yl)(3,4,5-trimethoxyphenyl)methanone as a novel potent tubulin depolymerizing and vascular disrupting agent” (Eur J Med Chem, 2022):
The source made the active and inactive calls. No cut-off for these calls is given here.

Assays:
[1] = tested on: HeLa; test: Induction of apoptosis in human HeLa cells assessed as early apoptotic cells at 1 uM incubated for 24 hrs by annexin V FITC and propidium iodide staining based flow cytometry analysis (reference value: 0.12%); format: functional
[2] = tested on: HeLa; test: Induction of apoptosis in human HeLa cells assessed as late apoptotic cells at 500 nM incubated for 24 hrs by annexin V FITC and propidium iodide staining based flow cytometry analysis (reference value: 0.05%); format: functional
[3] = tested on: HeLa; test: Induction of apoptosis in human HeLa cells assessed as late apoptotic cells at 750 nM incubated for 24 hrs by annexin V FITC and propidium iodide staining based flow cytometry analysis (reference value: 0.05%); format: functional
[4] = Metabolic stability in rat liver microsomes assessed as half life incubated for 5 mins in presence of NADPH by HPLC analysis; format: ADME, Microsome
[5] = tested on: HeLa; test: Induction of apoptosis in human HeLa cells assessed as early apoptotic cells at 1 uM incubated for 72 hrs by annexin V FITC and propidium iodide staining based flow cytometry analysis (reference value: 2.36%); format: functional
[6] = tested on: HeLa; test: Induction of apoptosis in human HeLa cells assessed as necrotic cells at 100 nM incubated for 72 hrs by annexin V FITC and propidium iodide staining based flow cytometry analysis (reference value: 2.88 %); format: functional
[7] = tested on: HeLa; test: Induction of mitochondrial membrane potential alteration in human HeLa cells assessed as viable cells at 1 uM measured after 48 hrs by JC1 staining-based flow cytometry analysis (reference value: 90.9%); format: functional; details: read-out: Activity
[8] = tested on: HeLa; test: Induction of apoptosis in human HeLa cells assessed as late apoptotic cells at 750 nM incubated for 72 hrs by annexin V FITC and propidium iodide staining based flow cytometry analysis (reference value: 4.70%); format: functional
[9] = tested on: HeLa; test: Induction of apoptosis in human HeLa cells assessed as viable cells at 500 nM incubated for 24 hrs by annexin V FITC and propidium iodide staining based flow cytometry analysis (reference value: 85.7%); format: functional; details: read-out: Activity
[10] = tested on: HeLa; test: Induction of apoptosis in human HeLa cells assessed as necrotic cells at 100 nM incubated for 24 hrs by annexin V FITC and propidium iodide staining based flow cytometry analysis (reference value: 1.14 %); format: functional
[11] = tested on: HeLa; test: Induction of apoptosis in human HeLa cells assessed as necrotic cells at 500 nM incubated for 72 hrs by annexin V FITC and propidium iodide staining based flow cytometry analysis (reference value: 2.88 %); format: functional
[12] = Resistance index, ratio of IC50 for antiproliferative activity against human A549/PTX cells assessed as reduction in cell viability to IC50 for antiproliferative activity against human A549 cells assessed as reduction in cell viability; format: functional
[13] = tested on: HeLa; test: Induction of apoptosis in human HeLa cells assessed as viable cells at 750 nM incubated for 24 hrs by annexin V FITC and propidium iodide staining based flow cytometry analysis (reference value: 85.7%); format: functional; details: read-out: Activity
[14] = tested on: HeLa; test: Induction of mitochondrial membrane potential alteration in human HeLa cells assessed as necrotic cells at 750 nM measured after 48 hrs by JC1 staining-based flow cytometry analysis (reference value: 0%); format: functional
[15] = tested on: HeLa; test: Induction of mitochondrial membrane potential alteration in human HeLa cells assessed as early apoptotic cells at 250 nM measured after 48 hrs by JC1 staining-based flow cytometry analysis (reference value: 9.07 %); format: functional
[16] = tested on: HeLa; test: Induction of mitochondrial membrane potential alteration in human HeLa cells assessed as early apoptotic cells at 750 nM measured after 48 hrs by JC1 staining-based flow cytometry analysis (reference value: 9.07 %); format: functional
[17] = tested on: HeLa; test: Induction of mitochondrial membrane potential alteration in human HeLa cells assessed as viable cells at 250 nM measured after 48 hrs by JC1 staining-based flow cytometry analysis (reference value: 90.9%); format: functional; details: read-out: Activity
[18] = tested on: HeLa; test: Induction of apoptosis in human HeLa cells assessed as viable cells at 500 nM incubated for 48 hrs by annexin V FITC and propidium iodide staining based flow cytometry analysis (reference value: 85.5%); format: functional; details: read-out: Activity
[19] = tested on: HeLa; test: Induction of cell cycle arrest in human HeLa cells assessed as reduction of cells at S phase at 100 to 2000 nM incubated for 24 to 48 hrs by […] flow cytometry; format: functional; details: dose 100-2000 nM, time 24-48 hrs
[20] = tested on: HeLa; test: Induction of apoptosis in human HeLa cells assessed as necrotic cells at 500 nM incubated for 48 hrs by annexin V FITC and propidium iodide staining based flow cytometry analysis (reference value: 1.85 %); format: functional
[21] = tested on: HeLa; test: Induction of apoptosis in human HeLa cells assessed as late apoptotic cells at 750 nM incubated for 48 hrs by annexin V FITC and propidium iodide staining based flow cytometry analysis (reference value: 8.87%); format: functional
[22] = tested on: HeLa; test: Induction of apoptosis in human HeLa cells assessed as early apoptotic cells at 500 nM incubated for 48 hrs by annexin V FITC and propidium iodide staining based flow cytometry analysis (reference value: 6.01%); format: functional
[23] = tested on: HeLa; test: Induction of mitochondrial membrane potential alteration in human HeLa cells assessed as necrotic cells at 250 nM measured after 48 hrs by JC1 staining-based flow cytometry analysis (reference value: 0%); format: functional
[24] = tested on: HeLa; test: Induction of apoptosis in human HeLa cells assessed as viable cells at 750 nM incubated for 48 hrs by annexin V FITC and propidium iodide staining based flow cytometry analysis (reference value: 85.5%); format: functional; details: read-out: Activity
[25] = tested on: HeLa; test: Induction of apoptosis in human HeLa cells assessed as early apoptotic cells at 1 uM incubated for 48 hrs by annexin V FITC and propidium iodide staining based flow cytometry analysis (reference value: 6.01%); format: functional
[26] = tested on: HUVEC; test: Antivascular activity against human HUVEC cells assessed as inhibition of tube formation at 500 nM incubated for 3 hrs by matrigel matrix based microscopic analysis; format: functional, cell-based
[27] = tested on: HeLa; test: Induction of mitochondrial membrane potential alteration in human HeLa cells assessed as late apoptotic cells at 1 uM measured after 48 hrs by JC1 staining-based flow cytometry analysis (reference value: 0.009%); format: functional
[28] = tested on: HeLa; test: Induction of apoptosis in human HeLa cells assessed as late apoptotic cells at 1 uM incubated for 24 hrs by annexin V FITC and propidium iodide staining based flow cytometry analysis (reference value: 0.05%); format: functional
[29] = tested on: HeLa; test: Induction of apoptosis in human HeLa cells assessed as viable cells at 1 uM incubated for 24 hrs by annexin V FITC and propidium iodide staining based flow cytometry analysis (reference value: 85.7%); format: functional; details: read-out: Activity
[30] = tested on: HeLa; test: Induction of apoptosis in human HeLa cells assessed as early apoptotic cells at 750 nM incubated for 72 hrs by annexin V FITC and propidium iodide staining based flow cytometry analysis (reference value: 2.36%); format: functional
[31] = tested on: HeLa; test: Induction of apoptosis in human HeLa cells assessed as viable cells at 1 uM incubated for 48 hrs by annexin V FITC and propidium iodide staining based flow cytometry analysis (reference value: 85.5%); format: functional; details: read-out: Activity
[32] = Metabolic stability in rat liver microsomes incubated for 5 mins in absence of NADPH by HPLC analysis; format: ADME, Microsome
[33] = tested on: HeLa; test: Induction of mitochondrial membrane potential alteration in human HeLa cells assessed as late apoptotic cells at 100 nM measured after 48 hrs by JC1 staining-based flow cytometry analysis (reference value: 0.009%); format: functional

`COc1cc(C(=O)c2nc(N3CCCC3)nc3ccsc23)cc(OC)c1OC` showed an Activity [1] of 7.23%, an Activity [2] of 6.42% and an Activity [3] of 7.06%. The half-life [4] was 17 min, the Activity [5] was 5.47% and the Activity [6] was 5.32%. It also gave a viability at 1 µM [7] of 44.6%, an Activity [8] of 21.3% and a viability at 0.5 µM [9] of 80.1%. The Activity [10] was 1.52%, the Activity [11] was 52.2% and the “Ratio IC50” value [12] was 1.7. It also gave a viability at 0.75 µM [13] of 81.3%, an Activity [14] of 0.019% and an Activity [15] of 9.45%. It also gave an Activity [16] of 43.3%, a viability at 0.25 µM [17] of 90.5% and a viability at 0.5 µM [18] of 78.1%. The Activity [19] was “Active”, the Activity [20] was 8.84% and the Activity [21] was 33.1%. For the same compound, the Activity [22] was 4.64%, the Activity [23] was 0.01% and the viability at 0.75 µM [24] was 36.7%. The Activity [25] was 2.09%, the Activity [26] was “Active” and the Activity [27] was 0.053%. The Activity [28] was 0.13%, the viability at 1 µM [29] was 80.1% and the Activity [30] was 1.24%. The viability at 1 µM [31] was 0.77%, the Stability [32] was “Stable” and the Activity [33] was 0.02%.
